Results taken from patent publication US20260060960A1, “GAMMA-SECRETASE INHIBITORS FOR USE IN THE TREATMENT OF INHERITED EPIDERMOLYSIS BULLOSA” (OSPEDALE PEDIATRICO BAMBINO GESU', priority 2022, published 2026).

How the values were obtained:
[1] = tested on: α-SMA, TAGLN, CNN1, JAG1; experiment: Immunoblotting of myofibroblast/fibrotic markers in RDEB fibroblasts; type: cell-based, human; conditions: RDEB-FBs, 24 h, absence and presence of TGF-β1
Source text: Whole-cell lysates were obtained in radioimmunoprecipitation assay (RIPA) buffer (Sigma-Aldrich) supplemented with phosphatase- and protease inhibitors (Merck). Different amounts of protein lysates were run under reducing conditions by using 4-12% gradient precast gels (Thermo Fisher Scientific) or hand-casting polyacrylamide gels (4-8%), depending on the protein to be assayed. Amersham™ Protran® Premium nitrocellulose membranes (pore size 0.2 μm) (Merck) were immunoblotted with primary antibodies indicated in Table 3 and incubated with horseradish peroxidase-linked secondary antibodies.
Detection was performed using Cytiva ECL™ Prime Western Blotting System (Merck) or SuperSignal West Femto (Thermo Fisher Scientific), depending on the protein to be assayed. Antibody against Notch1 (all forms; clone bTAN20) was obtained from the Developmental Studies Hybridoma Bank (DSHB) at the University of Iowa (DSHB, Iowa City, IA, USA). GAPDH (clone 14C10), Jagged1 (clone 28H8) and NOTCH1 intracellular domain (clone D3B8) were obtained from Cell Signaling (Cell Signaling Technology Inc., Beverly, MA, USA). Antibodies against TAGLN (clone #859112) and CNN1 (clone #836701) were from R&D Systems (R&D Systems, Inc. Minneapolis, MN, USA). Antibody against α-SMA (clone 1A4) was purchased from Sigma-Aldrich. Antibody against lamin B1 (LMNB1) was from Abcam (Cambridge, UK). […]

[2] = tested on: primary fibroblasts from RDEB patients (RDEB-FBs); experiment: Type I collagen degradation assay; type: cell-based, human; conditions: presence of TGF-β1, PF-03084014 5 μM, DAPT 20 μM
Procedure: The ability of RDEB-FBs to degrade a thin film of type I collagen (COL1) was assessed as previously described. Briefly, COL1 from calf hides (Symatese, Chaponost, France), was diluted at a concentration of 375 μg/ml in 13 mM hydrochloric acid. Diluted COL1 solution was rapidly mixed on ice with one quarter-volume of a neutralizing phosphate buffer (20 ml of 0.2 M NaH2PO4 pH 7.5, 20 ml 0.1 M NaOH, 4.15 ml 5 M NaCl) and gently dispensed into 24-well plates. COL1 gelation was obtained maintaining COL1-coated plates at 37° C. for 2 h. COL1 gels were dehydrated overnight in a laminar flow hood, washed with sterile water and PBS containing Penicillin/Streptomycin. Then, a droplet of complete medium containing 12.500 RDEB-FBs was gently poured in the center of the well, and cells were allowed to adhere in a humidified chamber for 3 h. […] At the end of the incubation period, RDEB-FBs were detached by trypsin/EDTA and counted to be sure to evaluate collagenolytic activity of the same number of cells per condition. The residual COL1 film was stained for 15 min with a solution of Coomassie Brilliant Blue R-250 Dye (Thermo Fisher Scientific), the excess of stain was removed with a destain solution (30% ethanol, 7.5% CH3COOH). Images were acquired with a 10× objective.

For `CCC[C@H](N[C@H]1CCc2cc(F)cc(F)c2C1)C(=O)Nc1cn(C(C)(C)CNCC(C)(C)C)cn1` [PF-03084014, (S)-2-((S)-5,7-difluoro-1,2,3,4-tetrahydronaphthalen-3-ylamino)-N-(1-(2-methyl-1-(neopentylamino)propan-2-yl)-1H-imidazol-4-yl)pentanamide], the “protein levels of contractile and fibrotic markers (immunoblotting)” value [1] was “down-regulation of the prototypical contractile and fibrotic markers, including JAG1” and the “type I collagen degradation areas” value [2] was “increased number and size of collagen degradation areas”.
